# ChEMBL document CHEMBL1909046, “DrugMatrix in vitro pharmacology data”
# Key:
# Nitric oxide synthase 1 = Nitric oxide synthase 1 (Rattus norvegicus, UniProt P29476); type: tissue-based, Cerebellum; further: in other assays of this panel Not Active means under 50% inhibition at 10 µM
# [1] = DRUGMATRIX: Phosphodiesterase PDE3 enzyme inhibition (substrate: [3H]cAMP + cAMP); type: tissue-based, Homo sapiens; conditions: platelet; Not Active = under 50% inhibition at 10 µM
# [2] = biological target: T1, Nitric oxide synthase, inducible (Mus musculus, UniProt P29477); set-up: species or system Escherichia coli;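 further: inhibition of iNOS enzyme activity measured with L-arginine as substrate; in other assays of this panel Not Active means under 50% inhibition at 10 µM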
# T1 sequence (P29477 whole entry): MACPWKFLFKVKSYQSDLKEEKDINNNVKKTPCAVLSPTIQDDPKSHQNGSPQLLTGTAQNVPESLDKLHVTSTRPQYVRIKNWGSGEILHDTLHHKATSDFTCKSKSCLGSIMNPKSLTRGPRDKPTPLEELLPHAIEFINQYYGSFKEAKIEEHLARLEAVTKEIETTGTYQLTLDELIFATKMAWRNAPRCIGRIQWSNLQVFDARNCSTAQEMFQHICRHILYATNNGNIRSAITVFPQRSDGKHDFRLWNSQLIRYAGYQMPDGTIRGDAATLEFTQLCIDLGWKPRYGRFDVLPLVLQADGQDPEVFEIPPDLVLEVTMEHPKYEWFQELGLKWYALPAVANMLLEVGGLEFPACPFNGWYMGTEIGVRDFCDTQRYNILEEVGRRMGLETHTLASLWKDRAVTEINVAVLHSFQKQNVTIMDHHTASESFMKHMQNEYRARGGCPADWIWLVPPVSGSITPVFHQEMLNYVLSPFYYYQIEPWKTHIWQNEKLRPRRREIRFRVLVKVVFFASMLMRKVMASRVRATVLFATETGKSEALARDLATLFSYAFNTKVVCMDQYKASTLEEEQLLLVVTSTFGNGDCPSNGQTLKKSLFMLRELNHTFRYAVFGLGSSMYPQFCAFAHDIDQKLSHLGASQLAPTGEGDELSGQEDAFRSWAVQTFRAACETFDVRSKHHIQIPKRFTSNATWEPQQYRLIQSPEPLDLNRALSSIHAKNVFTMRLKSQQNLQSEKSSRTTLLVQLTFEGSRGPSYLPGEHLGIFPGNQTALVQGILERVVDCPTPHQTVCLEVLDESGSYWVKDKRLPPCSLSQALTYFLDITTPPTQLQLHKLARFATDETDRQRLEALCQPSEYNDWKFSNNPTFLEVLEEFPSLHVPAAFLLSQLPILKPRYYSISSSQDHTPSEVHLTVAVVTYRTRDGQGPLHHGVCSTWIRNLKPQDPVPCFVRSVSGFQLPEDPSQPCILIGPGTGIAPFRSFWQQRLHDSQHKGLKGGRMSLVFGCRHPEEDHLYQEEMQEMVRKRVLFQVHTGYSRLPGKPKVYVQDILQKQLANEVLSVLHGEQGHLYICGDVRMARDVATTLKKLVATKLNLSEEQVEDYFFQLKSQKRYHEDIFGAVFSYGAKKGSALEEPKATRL
# Cytochrome P450 2C19 = Cytochrome P450 2C19 (Homo sapiens, UniProt P33261); conditions: bti-tn-5b1-4; further: in other assays of this panel Not Active means under 50% inhibition at 10 µM
# Chain of Cytochrome P450 2C19 (P33261 whole entry): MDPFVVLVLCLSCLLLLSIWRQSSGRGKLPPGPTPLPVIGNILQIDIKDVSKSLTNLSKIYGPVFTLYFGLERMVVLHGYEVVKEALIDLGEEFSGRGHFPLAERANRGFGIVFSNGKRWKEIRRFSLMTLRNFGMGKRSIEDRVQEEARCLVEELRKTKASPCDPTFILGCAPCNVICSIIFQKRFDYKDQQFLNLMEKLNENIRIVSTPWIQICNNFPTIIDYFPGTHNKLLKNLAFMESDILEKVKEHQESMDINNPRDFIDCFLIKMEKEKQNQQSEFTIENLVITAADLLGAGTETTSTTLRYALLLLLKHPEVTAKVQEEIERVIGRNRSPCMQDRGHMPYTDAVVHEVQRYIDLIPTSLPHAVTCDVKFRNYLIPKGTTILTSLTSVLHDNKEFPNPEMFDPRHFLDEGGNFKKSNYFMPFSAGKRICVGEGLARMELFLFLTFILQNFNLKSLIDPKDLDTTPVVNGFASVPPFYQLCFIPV
# [3] = biological target: Epidermal growth factor receptor (Homo sapiens, UniProt P00533); assay: DRUGMATRIX: Protein Tyrosine Kinase, EGF Receptor enzyme inhibition (substrate: Poly(Glu:Tyr)); type: cell-based, Insect cells; conditions: insect cells, Not Active = under 50% inhibition at 10 µM
# [4] = biological target: T2, Muscarinic acetylcholine receptor M5 (Homo sapiens, UniProt P08912); type: cell membranes, CHO-K1, Membrane; further: in other assays of this panel Not Active means under 50% inhibition at 10 µM
# T2 sequence (P08912 whole entry): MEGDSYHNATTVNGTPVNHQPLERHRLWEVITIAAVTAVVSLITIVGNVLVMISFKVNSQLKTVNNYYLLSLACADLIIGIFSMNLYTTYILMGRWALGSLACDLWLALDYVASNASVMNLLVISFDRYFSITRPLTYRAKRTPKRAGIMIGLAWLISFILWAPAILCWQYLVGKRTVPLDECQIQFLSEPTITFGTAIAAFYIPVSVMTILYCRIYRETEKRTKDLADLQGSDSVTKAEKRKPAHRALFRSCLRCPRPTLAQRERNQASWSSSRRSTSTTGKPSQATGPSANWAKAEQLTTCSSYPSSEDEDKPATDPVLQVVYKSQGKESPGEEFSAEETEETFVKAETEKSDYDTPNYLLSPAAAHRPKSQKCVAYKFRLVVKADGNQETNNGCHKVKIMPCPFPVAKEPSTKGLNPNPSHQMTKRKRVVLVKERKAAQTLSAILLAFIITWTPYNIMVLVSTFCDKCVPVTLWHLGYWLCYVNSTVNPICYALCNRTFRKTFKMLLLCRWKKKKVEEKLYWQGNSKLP
# Calcitonin receptor = biological target: T3, Calcitonin receptor (Homo sapiens, UniProt P30988); type: cell membranes, Membrane; conditions: t47d; further: in other assays of this panel Not Active means under 50% inhibition at 10 µM
# T3 sequence (P30988 whole entry): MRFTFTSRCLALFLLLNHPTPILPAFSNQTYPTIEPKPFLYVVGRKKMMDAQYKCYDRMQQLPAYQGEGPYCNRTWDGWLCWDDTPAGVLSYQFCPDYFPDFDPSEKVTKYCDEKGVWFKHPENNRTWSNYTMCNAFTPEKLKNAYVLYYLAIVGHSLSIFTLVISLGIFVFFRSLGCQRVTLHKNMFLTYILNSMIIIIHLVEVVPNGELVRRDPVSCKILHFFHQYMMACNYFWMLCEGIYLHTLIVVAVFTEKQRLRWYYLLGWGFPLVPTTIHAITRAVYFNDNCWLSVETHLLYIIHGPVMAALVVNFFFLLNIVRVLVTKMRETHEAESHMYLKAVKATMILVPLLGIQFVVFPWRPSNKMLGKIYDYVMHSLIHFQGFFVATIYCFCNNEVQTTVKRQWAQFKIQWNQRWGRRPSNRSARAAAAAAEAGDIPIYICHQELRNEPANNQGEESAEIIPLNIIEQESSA
# Chain of Nitric oxide synthase 1 (P29476 whole entry): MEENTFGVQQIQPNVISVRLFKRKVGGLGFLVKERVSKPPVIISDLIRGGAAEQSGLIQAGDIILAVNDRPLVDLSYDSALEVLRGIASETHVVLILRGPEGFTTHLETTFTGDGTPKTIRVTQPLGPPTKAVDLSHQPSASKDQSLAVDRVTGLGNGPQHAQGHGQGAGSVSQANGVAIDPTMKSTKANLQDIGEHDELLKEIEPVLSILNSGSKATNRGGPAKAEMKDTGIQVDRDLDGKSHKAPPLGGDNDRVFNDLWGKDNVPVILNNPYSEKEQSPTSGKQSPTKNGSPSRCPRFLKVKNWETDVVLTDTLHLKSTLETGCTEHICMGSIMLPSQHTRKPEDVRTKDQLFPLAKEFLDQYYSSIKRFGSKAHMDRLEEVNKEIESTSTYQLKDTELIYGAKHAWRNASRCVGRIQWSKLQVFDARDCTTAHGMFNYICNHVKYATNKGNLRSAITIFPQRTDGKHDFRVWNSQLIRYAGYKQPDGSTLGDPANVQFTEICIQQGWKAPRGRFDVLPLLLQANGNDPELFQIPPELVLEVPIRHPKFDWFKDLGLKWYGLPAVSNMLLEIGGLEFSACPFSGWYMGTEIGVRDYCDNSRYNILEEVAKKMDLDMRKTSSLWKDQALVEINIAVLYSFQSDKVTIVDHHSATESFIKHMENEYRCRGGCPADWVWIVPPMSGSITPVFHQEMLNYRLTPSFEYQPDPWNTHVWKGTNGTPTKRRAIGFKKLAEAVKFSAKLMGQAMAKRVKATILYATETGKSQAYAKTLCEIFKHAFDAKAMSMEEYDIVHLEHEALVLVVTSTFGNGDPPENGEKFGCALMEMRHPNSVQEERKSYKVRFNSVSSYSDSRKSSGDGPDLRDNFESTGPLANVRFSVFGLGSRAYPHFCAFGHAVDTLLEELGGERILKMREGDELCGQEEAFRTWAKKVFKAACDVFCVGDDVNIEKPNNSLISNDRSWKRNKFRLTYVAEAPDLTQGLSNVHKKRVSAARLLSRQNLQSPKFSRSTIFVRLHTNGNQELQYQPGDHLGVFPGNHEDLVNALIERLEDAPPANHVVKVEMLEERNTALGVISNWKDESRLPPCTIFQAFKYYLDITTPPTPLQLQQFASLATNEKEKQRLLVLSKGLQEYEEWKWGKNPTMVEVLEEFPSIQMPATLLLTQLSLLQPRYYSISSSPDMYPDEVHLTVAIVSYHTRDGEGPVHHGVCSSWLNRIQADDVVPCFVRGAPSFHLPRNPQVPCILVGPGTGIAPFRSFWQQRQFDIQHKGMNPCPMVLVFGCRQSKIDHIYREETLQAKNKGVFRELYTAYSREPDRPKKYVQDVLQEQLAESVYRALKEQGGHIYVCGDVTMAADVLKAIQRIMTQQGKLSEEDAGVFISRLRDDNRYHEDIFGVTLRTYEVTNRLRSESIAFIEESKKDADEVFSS
compound,measurement,setting,value
N=C(N)c1ccc(OCCCCCOc2ccc(C(=N)N)cc2)cc1 [PENTAMIDINE],IC50,Nitric oxide synthase 1,Not Active
same,IC50,[1],Not Active
same,Ki,[1],Not Active
same,IC50,[2],Not Active
same,IC50,Cytochrome P450 2C19,Not Active
same,Ki,Cytochrome P450 2C19,Not Active
same,IC50,[3],Not Active
same,IC50,[4]; read-out: IC50,2880 nM
same,Ki,[4]; read-out: Ki,2070 nM
same,IC50,Calcitonin receptor,Not Active
CCc1ccc(CCOc2ccc(CC3SC(=O)NC3=O)cc2)nc1 (stereo not drawn) [PIOGLITAZONE],IC50,Nitric oxide synthase 1,Not Active
same,IC50,[1],Not Active
same,Ki,[1],Not Active
same,IC50,[2],Not Active
same,IC50,Cytochrome P450 2C19,Not Active
same,Ki,Cytochrome P450 2C19,Not Active
same,IC50,[3],Not Active
same,IC50,[4]; cho-k1,Not Active
same,IC50,Calcitonin receptor,Not Active
CCCNC(C)C(=O)Nc1ccccc1C (stereo not drawn) [PRILOCAINE],IC50,Nitric oxide synthase 1,Not Active
same,IC50,[1],Not Active
same,Ki,[1],Not Active
same,IC50,[2],Not Active
same,IC50,Cytochrome P450 2C19,Not Active
same,Ki,Cytochrome P450 2C19,Not Active
same,IC50,[3],Not Active
same,IC50,[4]; cho-k1,Not Active
same,IC50,Calcitonin receptor,Not Active
CCN(CC)CCCC(C)Nc1c2ccc(Cl)cc2nc2ccc(OC)cc12 (stereo not drawn) [QUINACRINE],IC50,Nitric oxide synthase 1,Not Active
same,IC50,[1],Not Active
same,Ki,[1],Not Active
same,IC50,[2],Not Active
same,IC50,Cytochrome P450 2C19,Not Active
same,Ki,Cytochrome P450 2C19,Not Active
same,IC50,[3],Not Active
same,IC50,[4]; read-out: IC50,3740 nM
same,Ki,[4]; read-out: Ki,2680 nM
same,IC50,Calcitonin receptor,Not Active
CC[C@]1(O)C[C@@H]2CN(CCc3c([nH]c4ccccc34)[C@@](C(=O)OC)(c3cc4c(cc3OC)N(C)[C@H]3[C@@](O)(C(N)=O)[C@H](O)[C@]5(CC)C=CCN6CC[C@]43[C@@H]65)C2)C1 [VINDESINE],IC50,Nitric oxide synthase 1,Not Active
same,IC50,[1],Not Active
same,Ki,[1],Not Active
same,IC50,[2],Not Active
same,IC50,Cytochrome P450 2C19,Not Active
same,Ki,Cytochrome P450 2C19,Not Active
same,IC50,[3],Not Active
same,IC50,[4]; cho-k1,Not Active
same,IC50,Calcitonin receptor,Not Active
CCN(C(C)=O)c1cccc(-c2ccnc3c(C#N)cnn23)c1 [ZALEPLON],IC50,Nitric oxide synthase 1,Not Active
same,IC50,[1],Not Active
same,Ki,[1],Not Active
same,IC50,[2],Not Active
same,IC50,Cytochrome P450 2C19,Not Active
same,Ki,Cytochrome P450 2C19,Not Active
same,IC50,[3],Not Active
same,IC50,[4]; cho-k1,Not Active
same,IC50,Calcitonin receptor,Not Active
COBALTOUS CHLORIDE,IC50,Nitric oxide synthase 1,Not Active
same,Ki,Nitric oxide synthase 1,Not Active
same,IC50,[1],Not Active
same,Ki,[1],Not Active
same,IC50,[2],Not Active
same,Ki,[2],Not Active
same,IC50,Cytochrome P450 2C19,Not Active
same,Ki,Cytochrome P450 2C19,Not Active
same,IC50,[3],Not Active
same,Ki,[3],Not Active
same,IC50,[4]; cho-k1,Not Active
same,Ki,[4]; cho-k1,Not Active
same,IC50,Calcitonin receptor,Not Active
same,Ki,Calcitonin receptor,Not Active
COLISTIN,IC50,Nitric oxide synthase 1,Not Active
same,Ki,Nitric oxide synthase 1,Not Active
same,IC50,[1],Not Active
same,Ki,[1],Not Active
same,IC50,[2],Not Active
same,Ki,[2],Not Active
same,IC50,Cytochrome P450 2C19,Not Active
same,Ki,Cytochrome P450 2C19,Not Active
same,IC50,[3]; read-out: IC50,1500 nM
same,IC50,[4]; cho-k1,Not Active
same,Ki,[4]; cho-k1,Not Active
same,IC50,Calcitonin receptor,Not Active
same,Ki,Calcitonin receptor,Not Active
